{"source": "patent US20030130484A1", "about": "“Inhibitors and disassemblers of fibrillogenesis” (priority 2001, published 2003)", "key": {"[1]": {"target": "Aβ40 (Homo sapiens, UniProt P05067)", "sequence (P05067 672-711)": "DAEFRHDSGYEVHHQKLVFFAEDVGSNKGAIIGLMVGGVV", "assay": "Inhibition of Aβ40 fibrillogenesis, thioflavin T fluorescence assay", "assay_type": "biochemical"}, "[2]": {"system": "COS cells", "assay": "COS cell uptake of fluorescent peptides, fluorescence microscopy and HPLC reisolation", "assay_type": "cell-based", "protocol": "(§1) Briefly, COS cells, were plated on coverslips, and incubated overnight in the presence of 4 μM to β40 μM of the Anth-A16-20 peptide. The cells on coverslips were then washed extensively with PBS, fixed for one hour with a 3.7% formaldehyde solution and mounted on a slide. The cells were examined by fluorescence microscopy using a DAPI filter.\nas §1, with “COS” for “Briefly, COS”, “cells,” for “cells, were”, “coverslips, were” for “coverslips, and”, “to 40” for “to β40”, “the Anth-Aβ16-20” for “the Anth-A16-20”\nIn this experiment, Anth-Aβ16-20m was incubated with COS cells for eight hours. […] The cells were then lysed by the addition of Triton X-100 to 0.1% (v/v), and the lysate was analyzed by HPLC. The HPLC solvent system contained 0.1% trifluoroacetic acid in water (solvent A) and 0.1% trifluoroacetic acid in acetonitrile (solvent B). The peptide was eluted with a gradient of 0%-60% solvent B in 60 minutes. Fractions (1 ml) from the HPLC were collected and analyzed by fluorescence spectroscopy. The excitation and emission wavelengths were 346 nm and 435 nm, respectively."}, "[3]": {"target": "T1, Aβ40 fibrils (Homo sapiens, UniProt P05067)", "T1 sequence (P05067 672-711)": "as above"}, "[4]": {"target": "chymotrypsin (Bos taurus, UniProt P00766)", "assay": "Chymotrypsin digestion (protease resistance), RP-HPLC", "assay_type": "in vitro ADME", "details": "24 h at 37° C., 0.1 mg/ml chymotrypsin, pH 8.4", "protocol": "Peptides were incubated for 24 h at 37 C with […] chymotrypsin. The percentage of undigested peptide was determined by RC-HPLC as described in the Materials and Methods. […] The arrow marks the position of the intact.\nThe peptides were dissolved in 0.5% ammonium bicarbonate at a concentration of 1.0 mg/ml. The pH of the solution was 8.4. Chymotrypsin (Worthington Biochemical Corporation) was added to the peptide solutions so that the final concentration was 0.1 mg/ml. Samples were incubated at 37° C. After twenty-four hrs, the samples were frozen and lyophilized. The samples were analyzed by reverse-phase HPLC using an analytical C 18 column (Rainin Microsorb) and eluted, using a 60 min gradient from 10-70% acetonitrile, containing 0.1% (v/v) TFA. The loss of intact peptide and appearance of fragments were quantitated by integration of the appropriate peaks. Results were expressed as a percent digestion of the peptides. In addition, identities of the peaks were confirmed by electrospray mass spectrometry.\nThe peptides were dissolved in 0.5% ammonium bicarbonate at a concentration of 1.0 mg/ml. […] After twenty-four hours, the samples were lyophilized and then analyzed by reverse-phase HPLC (Rainin-Microsorb C18 column) and a water-acetonitrile (0.1% (v/v) TFA) gradient (10-70% acetonitrile over one h)."}, "[5]": {"assay": "Fibril formation by the peptide alone (electron microscopy, Congo Red)", "assay_type": "physicochemical", "protocol": "After incubation of the inhibition and disassembly samples for the appropriate period of time, an aliquot of each sample was applied to a glow-discharge, 400-mesh, carbon-coated support film and stained with 1% uranyl acetate. Micrographs were recorded using Philips EM300 at magnifications of 17,000, 45,000 and 100,000.\n(§2) The Congo Red binding assay was performed essentially as described in other publications (Klunk 1989). An aliquot of peptide solution containing 50 μg of peptide was added to 1 ml of a […] solution of Congo Red in 100 mM phosphate buffer, pH 7.4. The solution was incubated for 15 min at room temperature and then the absorbance was measured from 400-600 nm.\nFor the electron microscopy, aliquots of the inhibition and disassembly samples were applied to a glow-discharge, 400-mesh, carbon-coated support film and stained with 1% uranyl acetate. Micrographs were recorded using a Philips EM300 at magnifications of 17,000, 45,000 and 100,000."}, "[6]": {"target": "T1, Aβ40 fibrils", "assay": "Electron microscopy of Aβ40 fibril inhibition and disassembly samples", "assay_type": "biochemical", "details": "Aβ40 incubated with inhibitor peptide"}, "[7]": {"target": "Aβ1-40 fibrils (Homo sapiens, UniProt P05067)", "sequence (P05067 672-711)": "as above", "assay": "Congo Red binding assay of Aβ1-40 fibril inhibition and disassembly", "assay_type": "biochemical", "protocol": "as §2, with “Thioflavin T fluorescence is well known as a sensitive assay for the formation of amyloid fibrils. […] The Congo” for “The Congo”"}, "[8]": {"assay": "Solubility in aqueous media and organic solvents"}}, "note": "Entries after “also recorded” stand apart in the source; their conditions may differ. Square brackets hold non-standard residues; d marks the D form. Peptide text beside a SMILES is read from it. NMeF = CN[C@@H](Cc1ccccc1)C(=O)O; PhLac = O=C(O)[C@@H](O)Cc1ccccc1; NMeL = CN[C@@H](CC(C)C)C(=O)O; NMeV = CN[C@H](C(=O)O)C(C)C; Hiv = CC(C)[C@H](O)C(=O)O; NMeA = CN[C@@H](C)C(=O)O", "data": [{"molecule": "CC(C)[C@H](NC(=O)[C@H](C(C)C)N(C)C(=O)[C@H](C)NC(=O)[C@H](C)NC(=O)[C@H](C)NC(=O)[C@H](C)N(C)C(=O)[C@H](C)NC(=O)CN)C(N)=O", "note": "[PrPm, NH2-GA(me-A)AAA(me-V)V-CONH2] (H-GA[NMeA]AAA[NMeV]V-NH2)", "values": [{"measurement": "Inhibition of Fibrillogenesis ICmax", "setting": "[1]", "value": 8.6}, {"measurement": "Inhibition of Fibrilogenesis ICmax", "setting": "[1]", "value": 8.6, "unit": "%"}, {"measurement": "effect on Aβ40 fibril formation (in words)", "setting": "[1]", "value": "no effect"}]}, {"molecule": "CNc1ccccc1C(=O)N[C@@H](CCCCN)C(=O)N[C@@H](CC(C)C)C(=O)N[C@H](C(=O)N[C@@H](Cc1ccccc1)C(=O)N[C@@H](Cc1ccccc1)C(N)=O)C(C)C", "note": "[Anth-Aβ16-20]", "values": [{"measurement": "fluorescence of COS cells", "setting": "[2]; peptide concentration 20 μM", "value": "Strong fluorescence"}, {"measurement": "fluorescence of COS cells", "setting": "[2]; peptide levels below 4 μM", "value": "Very weak fluorescence"}, {"measurement": "Fibril Disassembly ICmax", "setting": "[3]", "value": 100, "unit": "%"}, {"measurement": "Inhibition of Fibrilogenesis ICmax", "setting": "[1]", "value": 100, "unit": "%"}]}, {"molecule": "CC(C)C[C@H](NC(=O)[C@@H](N)CCCCN)C(=O)N[C@H](C(=O)N[C@@H](Cc1ccccc1)C(=O)N[C@@H](Cc1ccccc1)C(=O)N[C@@H](C)C(=O)N[C@@H](CCC(=O)O)C(N)=O)C(C)C", "note": "[Aβ16-22, NH2-KLVFFAE-CONH2] (H-KLVFFAE-NH2)", "values": [{"measurement": "chymotrypsin digestion", "setting": "[4]", "value": "cleaved by chymotrypsin"}, {"measurement": "Inhibition of Fibrillogenesis ICmax", "setting": "[1]", "value": 23.0}, {"measurement": "Inhibition of Fibrilogenesis ICmax", "setting": "[1]", "value": 23.0, "unit": "%"}, {"measurement": "effect on Aβ40 fibril formation (in words)", "setting": "[1]", "value": "relatively modest inhibitory effect"}, {"measurement": "inhibition of fibrillogenesis", "setting": "[1]", "value": "10-20%"}]}, {"molecule": "CC(=O)N[C@@H](CCCCN)C(=O)N[C@@H](CC(C)C)C(=O)O[C@H](C(=O)N[C@@H](Cc1ccccc1)C(=O)O[C@@H](Cc1ccccc1)C(N)=O)C(C)C", "note": "[Aβ16-20e, Ac—NH—KLesterVFesterF—CONH2] (Ac-KL[Hiv]F[PhLac]-NH2)", "values": [{"measurement": "fibril formation by the peptide alone", "setting": "[5]", "value": "does not cause a change in the absorbance spectrum of Congo Red"}, {"measurement": "Disassembly ICmax", "setting": "[3]", "value": 100}, {"measurement": "fibrillar material by electron microscopy, inhibition samples", "setting": "[6]", "value": "Fibrillar material was not observed"}, {"measurement": "Inhibition ICmax", "setting": "[1]", "value": 100}, {"measurement": "Congo Red spectrum, pre-formed Aβ1-40 fibrils to which inhibitor was added", "setting": "[7]; disassembly", "value": "identical to the control spectrum of Congo Red alone"}, {"measurement": "Congo Red spectrum, Aβ1-40 incubated with inhibitor", "setting": "[7]; inhibition", "value": "identical to the control spectrum of Congo Red alone"}]}, {"molecule": "CC(=O)N[C@@H](CCCCN)C(=O)N[C@@H](CC(C)C)C(=O)N(C)[C@H](C(=O)N[C@@H](Cc1ccccc1)C(=O)N(C)[C@@H](Cc1ccccc1)C(N)=O)C(C)C", "note": "[Aβ16-20m2]", "values": [{"measurement": "solubility in aqueous media (in words)", "setting": "[8]", "value": "highly soluble in aqueous media"}]}, {"molecule": "CC(C)C[C@@H](C(=O)N[C@H](C(=O)N(C)[C@@H](Cc1ccccc1)C(=O)N[C@@H](Cc1ccccc1)C(=O)N(C)[C@@H](C)C(=O)N[C@@H](CCCCN)C(N)=O)C(C)C)N(C)C(=O)[C@@H](N)CCC(=O)O", "note": "[Aβ16-22mR, NH2-E(me-L)V(me-F)F(me-A)-K-CONH2] (H-E[NMeL]V[NMeF]F[NMeA]K-NH2)", "values": [{"measurement": "solubility in aqueous media (in words)", "setting": "[8]", "value": "highly soluble in aqueous solutions"}, {"measurement": "Inhibition of Fibrillogenesis ICmax", "setting": "[1]", "value": 100}, {"measurement": "Inhibition of Fibrilogenesis ICmax", "setting": "[1]", "value": 100, "unit": "%"}, {"measurement": "effect on Aβ40 fibril formation (in words)", "setting": "[1]", "value": "prevented fibril formation of Aβ40 in a dose dependent manner"}]}, {"molecule": "CC(C)C[C@@H](C(=O)N[C@H](C(=O)N(C)[C@@H](Cc1ccccc1)C(=O)N[C@@H](Cc1ccccc1)C(=O)N(C)[C@@H](C)C(=O)N[C@@H](CCC(=O)O)C(N)=O)C(C)C)N(C)C(=O)[C@@H](N)CCCCN", "note": "[Aβ16-22m, NH2-K(me-L)V(me-F)F(me-A)-E-CONH2] (H-K[NMeL]V[NMeF]F[NMeA]E-NH2)", "values": [{"measurement": "fibril formation by the peptide alone", "setting": "[5]", "value": "no fibrillar or aggregated material"}, {"measurement": "solubility in aqueous media (in words)", "setting": "[8]", "value": "highly soluble in aqueous solutions; also recorded: highly soluble in aqueous media"}, {"measurement": "solubility relative to unmethylated congener", "setting": "[8]; physiological pH and ionic strength", "value": "20-40 times"}, {"measurement": "chymotrypsin digestion", "setting": "[4]", "value": "complete resistance; also recorded: highly resistant"}, {"measurement": "fibrillar material by electron microscopy, inhibition samples", "setting": "[6]", "value": "complete lack of fibrils"}, {"measurement": "Inhibition of Fibrillogenesis ICmax", "setting": "[1]", "value": 100}, {"measurement": "Inhibition of Fibrilogenesis ICmax", "setting": "[1]", "value": 100, "unit": "%"}, {"measurement": "effect on Aβ40 fibril formation (in words)", "setting": "[1]", "value": "prevented fibril formation of Aβ40 in a dose dependent manner"}, {"measurement": "molar excess of inhibitor giving complete elimination of thioflavin fluorescence (complete inhibition)", "setting": "[1]", "value": "> 30"}]}, {"molecule": "CNc1ccccc1C(=O)N[C@@H](CCCCN)C(=O)N(C)[C@@H](CC(C)C)C(=O)N[C@H](C(=O)N(C)[C@@H](Cc1ccccc1)C(=O)N[C@@H](Cc1ccccc1)C(N)=O)C(C)C", "note": "[Anth-Aβ16-20m, Anth-NH—K(me-L)V(me-F)F—CONH2]", "values": [{"measurement": "integrity of peptide internalized by COS cells and reisolated (HPLC)", "setting": "[2]; overnight incubation", "value": "not modified or degraded"}, {"measurement": "fluorescence of COS cells", "setting": "[2]; peptide levels below 4 μM", "value": "Very weak fluorescence"}, {"measurement": "intracellular fluorescence / permeation of COS cell membranes", "setting": "[2]; twelve hours incubation", "value": "permeates cell membranes"}, {"measurement": "Inhibition ICmax", "setting": "[1]", "value": 100}]}, {"molecule": "CC(=O)N[C@@H](CCCCN)C(=O)N[C@@H](CC(C)C)C(=O)N[C@H](C(=O)N[C@@H](Cc1ccccc1)C(=O)N[C@@H](Cc1ccccc1)C(N)=O)C(C)C", "note": "[Ac-Aβ16-20, Ac-NH-KLVFF-CONH2, reference compound]", "values": [{"measurement": "disassembly of pre-formed Aβ40 fibrils (in words)", "setting": "[3]; thioflavin fluorescence", "value": "disassembled pre-formed"}, {"measurement": "Inhibition of Fibrillogenesis ICmax", "setting": "[1]", "value": 100}, {"measurement": "Inhibition of Fibrilogenesis ICmax", "setting": "[1]", "value": 100, "unit": "%"}]}, {"molecule": "CC(C)C[C@H](NC(=O)[C@@H](N)CCCCN)C(=O)N(C)[C@H](C(=O)N(C)[C@@H](Cc1ccccc1)C(=O)N(C)[C@@H](Cc1ccccc1)C(=O)N(C)[C@@H](C)C(=O)N[C@@H](CCC(=O)O)C(N)=O)C(C)C", "note": "[Aβ16-22m(4), NH2-KL(me-V)(me-F)(me-F)(me-A)-E-CONH2] (H-KL[NMeV][NMeF][NMeF][NMeA]E-NH2)", "values": [{"measurement": "solubility in aqueous media (in words)", "setting": "[8]", "value": "highly soluble in water"}, {"measurement": "Inhibition of Fibrillogenesis ICmax", "setting": "[1]", "value": 100}, {"measurement": "Inhibition of Fibrilogenesis ICmax", "setting": "[1]", "value": 100, "unit": "%"}]}, {"molecule": "CC(=O)N[C@@H](CCCCN)C(=O)N[C@@H](CC(C)C)C(=O)N[C@H](C(=O)N[C@@H](Cc1ccccc1)C(=O)N[C@@H](Cc1ccccc1)C(N)=O)C(C)C", "note": "[Aβ16-20, reference compound]", "values": [{"measurement": "fibril formation by the peptide alone", "setting": "[5]", "value": "aggregates to form amyloid fibrils; also recorded: bind Congo Red"}, {"measurement": "solubility", "setting": "[8]", "value": "~1000", "unit": "µM"}, {"measurement": "Inhibition ICmax", "setting": "[1]", "value": 89}]}]}
